Where two headings read alike, the source gives them in different places.
What was measured:
[1] = target: T1, recombinant human MAO-B (Homo sapiens, UniProt P27338); test: MAO-B inhibition assay (benzylamine); format: biochemical; conditions: read-out: Residual activity at 10 µM (%) MAO-B
T1 construct: purchased Sigma-Aldrich
T1 sequence (P27338 1-520): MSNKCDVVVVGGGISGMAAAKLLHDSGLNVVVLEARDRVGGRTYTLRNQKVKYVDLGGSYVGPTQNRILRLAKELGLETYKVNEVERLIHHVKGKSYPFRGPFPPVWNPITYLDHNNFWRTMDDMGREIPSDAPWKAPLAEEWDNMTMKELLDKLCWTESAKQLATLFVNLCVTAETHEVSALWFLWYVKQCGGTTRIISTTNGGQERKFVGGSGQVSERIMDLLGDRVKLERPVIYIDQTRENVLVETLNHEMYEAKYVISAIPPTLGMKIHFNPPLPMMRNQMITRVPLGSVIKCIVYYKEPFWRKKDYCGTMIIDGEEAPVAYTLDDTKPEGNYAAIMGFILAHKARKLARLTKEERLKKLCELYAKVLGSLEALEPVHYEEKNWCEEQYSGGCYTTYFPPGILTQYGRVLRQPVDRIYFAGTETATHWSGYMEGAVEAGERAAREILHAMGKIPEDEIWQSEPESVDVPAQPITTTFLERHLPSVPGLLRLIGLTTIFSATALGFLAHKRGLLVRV
Procedure: (§1) AChE assays were performed as described by Ellman et al.[41] with slight modifications. […] DTNB was used for color development, caused by reaction between it and thiocholine (a product of AChE). For inhibitory assays, compounds were preincubated with AChE for 15 min prior to ATCI and DTNB addition. BChE activity was assayed using the same method, but BTCI was used instead of ATCI.
(§2) Inhibitions of the activities of AChE, BChE, MAO-A, and MAO-B by the 15 compounds were investigated at an inhibitor concentration of 10 µM. IC50 values were also determined. […] The inhibition types and Ki values were determined using Lineweaver–Burk Plots and secondary plots.

[2] = target: T2, AChE (Type VI-S; from Electrophorus electricus) (Electrophorus electricus, UniProt O42275); test: biochemical; conditions: for remaining activity at 10 µM: read-out: Residual activity at 10 µM (%) AChE, inhibitor 10 µM; for SI = IC50 of AChE/ IC50 of BChE: selectivity index
T2 construct: AChE (Type VI-S; from Electrophorus electricus); purchased Sigma-Aldrich Type VI-S (catalogue number not given)
T2 sequence (O42275 24-633): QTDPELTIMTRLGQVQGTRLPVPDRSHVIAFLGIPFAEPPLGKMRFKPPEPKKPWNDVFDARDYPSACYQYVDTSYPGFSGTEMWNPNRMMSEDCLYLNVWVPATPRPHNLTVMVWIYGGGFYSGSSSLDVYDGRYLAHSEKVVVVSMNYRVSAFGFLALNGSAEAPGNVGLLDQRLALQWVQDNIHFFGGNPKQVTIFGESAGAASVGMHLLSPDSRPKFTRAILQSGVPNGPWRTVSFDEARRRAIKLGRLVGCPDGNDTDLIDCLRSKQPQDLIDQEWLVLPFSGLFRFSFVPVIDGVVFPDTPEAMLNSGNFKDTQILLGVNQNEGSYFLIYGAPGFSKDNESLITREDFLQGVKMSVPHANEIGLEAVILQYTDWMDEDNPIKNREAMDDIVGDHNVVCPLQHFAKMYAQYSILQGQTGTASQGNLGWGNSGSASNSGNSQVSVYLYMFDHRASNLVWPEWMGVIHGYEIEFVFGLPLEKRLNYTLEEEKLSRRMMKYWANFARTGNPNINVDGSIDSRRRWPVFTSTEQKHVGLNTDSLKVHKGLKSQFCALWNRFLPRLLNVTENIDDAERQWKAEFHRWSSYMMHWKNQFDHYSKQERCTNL
Procedure: as §1, §2

[3] = target: T3, BChE (from equine serum) (Equus caballus, UniProt P81908); test: biochemical; conditions: 15 min preincubation
T3 construct: BChE (from equine serum); purchased Sigma-Aldrich; host or cells: equine serum
T3 sequence (P81908 whole entry): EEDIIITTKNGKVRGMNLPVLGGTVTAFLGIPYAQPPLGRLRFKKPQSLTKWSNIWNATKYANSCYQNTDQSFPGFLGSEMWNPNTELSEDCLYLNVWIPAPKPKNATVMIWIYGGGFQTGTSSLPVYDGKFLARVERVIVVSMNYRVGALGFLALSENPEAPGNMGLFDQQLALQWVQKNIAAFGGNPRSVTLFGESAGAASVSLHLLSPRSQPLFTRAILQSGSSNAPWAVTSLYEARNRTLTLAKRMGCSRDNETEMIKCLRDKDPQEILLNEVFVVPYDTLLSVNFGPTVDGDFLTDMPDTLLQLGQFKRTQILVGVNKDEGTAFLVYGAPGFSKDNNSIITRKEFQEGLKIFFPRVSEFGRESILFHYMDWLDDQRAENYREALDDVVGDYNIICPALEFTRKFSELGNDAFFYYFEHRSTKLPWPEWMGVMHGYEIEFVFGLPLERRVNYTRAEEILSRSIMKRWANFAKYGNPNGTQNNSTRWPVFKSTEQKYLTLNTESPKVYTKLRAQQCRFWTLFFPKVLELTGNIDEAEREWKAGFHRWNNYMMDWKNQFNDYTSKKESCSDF
Procedure: as §1, §2

[4] = target: T4, recombinant human MAO-A (Homo sapiens, UniProt P21397); test: MAO-A inhibition assay (kynuramine); format: biochemical; conditions: read-out: Residual activity at 10 µM (%) MAO-A
T4 construct: purchased Sigma-Aldrich
T4 sequence (P21397 1-527): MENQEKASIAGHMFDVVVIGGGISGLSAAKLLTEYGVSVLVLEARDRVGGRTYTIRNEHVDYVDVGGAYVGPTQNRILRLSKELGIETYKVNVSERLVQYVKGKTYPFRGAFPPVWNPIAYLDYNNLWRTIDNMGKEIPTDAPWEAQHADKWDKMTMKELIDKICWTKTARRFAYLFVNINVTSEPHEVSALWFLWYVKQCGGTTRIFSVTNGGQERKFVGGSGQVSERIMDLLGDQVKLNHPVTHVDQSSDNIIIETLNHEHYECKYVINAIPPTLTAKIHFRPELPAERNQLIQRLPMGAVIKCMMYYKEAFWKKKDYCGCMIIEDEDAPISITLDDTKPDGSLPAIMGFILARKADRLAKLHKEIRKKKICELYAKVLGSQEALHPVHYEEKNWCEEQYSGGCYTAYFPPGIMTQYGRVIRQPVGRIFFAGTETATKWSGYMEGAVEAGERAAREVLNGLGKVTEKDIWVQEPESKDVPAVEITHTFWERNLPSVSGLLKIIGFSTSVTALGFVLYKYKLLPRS
Procedure: as §1, §2

[5] = system: BChE; conditions: cited from earlier work
[6] = system: AChE; conditions: cited from earlier work
[7] = 15 min preincubation, read-out: IC50 (µM) AChE
[8] = verbascosides from Harpagophytum procumbens

Compound | remaining activity at 10 µM ([2]; 15 min preincubation) | SI = IC50 of AChE/ IC50 of BChE [2] | remaining activity at 10 µM ([1]; inhibitor 10 µM) | IC50 [2, 7] | IC50 ([3]; read-out: IC50 (µM) BChE) | remaining activity at 10 µM ([4]; inhibitor 10 µM) | further results
C/C=C(/C)C(=O)O[C@@H]1c2c(ccc3ccc(=O)oc23)OC(C)(C)[C@@H]1OC(=O)/C(C)=C\C [PJ7, anomalin] | 75.4 ± 5.72% | < 0.45 |  |  |  |  | remaining activity at 10 µM [1]: 73.8 ± 8.23%; IC50 [2]: 17.9 ± 5.59 µM; IC50 ([3]; IC50 (µM) BChE): > 40 µM; remaining activity at 10 µM [4]: 74 ± 1.16%
CCC(C)C(=O)O[C@@H]1c2c(ccc3ccc(=O)oc23)OC(C)(C)[C@@H]1OC(C)=O (stereo partly shown) [PJ3, hyuganin] | 97.2 ± 8.3% |  | 83.7 ± 2.33% | > 40 µM | > 40 µM | 81.2 ± 3.68% | 
CC(C)=CC(=O)O[C@@H]1[C@H](OC(=O)CC(C)C)c2c(ccc3ccc(=O)oc23)OC1(C)C [PJ8, 3′-senecioyl-4′-isovalerylkhellactone] | 97 ± 1.4% | < 0.79 | 68.5 ± 2.1% | 31.6 ± 4.4 µM | > 40 µM | 79.5 ± 2.05% | 
CC(C)=CC(=O)O[C@@H]1c2c(ccc3ccc(=O)oc23)OC(C)(C)[C@@H]1OC(=O)C=C(C)C [PJ4, 3′,4′-disenecioylkhellactone] | 85.4 ± 7.52% | 1.99 | 95.6 ± 4.8% | 21.3 ± 7.69 µM | 10.7 µM | 100.3 ± 0.39% | 
C/C=C(/C)C(=O)O[C@@H]1[C@H](OC(=O)C=C(C)C)c2c(ccc3ccc(=O)oc23)OC1(C)C [PJ6, calipteryxin] | 76.3 ± 6.46% | < 0.64 | 63.1 ± 2.75% | 25.6 ± 4.5 µM | > 40 µM | 86.1 ± 1.93% | 
O=c1ccc2ccc(O)c(O)c2o1 [daphnetin] |  |  |  |  |  |  | IC50 [5]: 8.66 µM; IC50 ([6]; from Artemisia capillaris): 11.6 µM
O=c1ccc2cc(O)c(O)cc2o1 [esculetin] |  |  |  |  |  |  | IC50 [5]: 9.29 µM; IC50 ([6]; from Artemisia capillaris): 6.13 µM
CCC(C)C(=O)O[C@@H]1c2c(ccc3ccc(=O)oc23)OC(C)(C)[C@@H]1OC(=O)C=C(C)C (stereo partly shown) [PJ10, 3′-senecioyl-4′-(2-methylbutyryl)khellactone] | 86.4 ± 5.23% | > 3.92 | 70.9 ± 2.61% | > 40 µM | 10.2 µM | 92.1 ± 5.58% | 
C[C@@H]1O[C@@H](O[C@@H]2[C@@H](O)[C@H](OCCc3ccc(O)c(O)c3)O[C@H](COC(=O)/C=C/c3ccc(O)c(O)c3)[C@H]2O)[C@H](O)[C@H](O)[C@H]1O [isoacteoside] |  |  |  |  |  |  | IC50 ([5]; from H. procumbens): 29.7 µM
C[C@@H]1O[C@@H](O[C@@H]2[C@@H](O)[C@H](OCCc3ccc(O)c(O)c3)O[C@H](CO)[C@H]2OC(=O)/C=C/c2ccc(O)c(O)c2)[C@H](O)[C@H](O)[C@H]1O [acteoside] |  |  |  |  |  |  | IC50 [6, 8]: 19.9 µM
COc1cc2ccc(=O)oc2cc1O [scopoletin] |  |  |  |  |  |  | IC50 ([6]; from Vaccinium oldhami Miquel): 52 µM
O=C(/C=C/c1ccc(O)cc1)OC[C@H]1O[C@@H](Oc2c(-c3ccc(O)cc3)oc3cc(O)cc(O)c3c2=O)[C@H](O)[C@@H](O)[C@@H]1O [tiliroside] |  |  |  |  |  |  | IC50 ([6]; flavonoids from Agrimonia pilosa): 23.5 µM
CCC(C)C(=O)c1c(O)c2c(c3c(-c4ccccc4)cc(=O)oc13)OC(C)(CCC=C(C)C)C=C2 (stereo not shown) [mesuagenin B] |  |  |  |  |  |  | IC50 ([6]; from Mesua elegans): 0.7 µM
COc1ccc(CCCc2ccc(O)cc2)c(O)c1 [broussonin A] |  |  |  |  |  |  | IC50 ([5]; from Anemarrhena asphodeloidesa): 7.5 µM
C[C@@H]1O[C@@H](O[C@@H]2[C@@H](O)[C@H](OCCc3ccc(O)c(O)c3)O[C@H](CO)[C@H]2O)[C@H](O)[C@H](O)[C@H]1O [decaffeoylverbascoside] |  |  |  |  |  |  | IC50 [6, 8]: 16.1 µM

Reference: PMC7730441, “Acetylcholinesterase and butyrylcholinesterase inhibitory activities of khellactone coumarin derivatives isolated from Peucedanum japonicum Thurnberg” (Scientific Reports, 2020)
